Assays:
Format in all cases: cell-based
EGFR V3 [1] = biological target: T1, EGFR V3 (Homo sapiens, UniProt P00533, DELINS30-297G); assay: BaF3 cell proliferation assay, EGFR V3 (Table A); conditions: potency code, 3 days, CellTiterGlo, read-out: EGFR V3 (Activity for Inhibiting EGFR)
T1 construct: expressed in transfected cells; host or cells: BaF3 (murine pro-B), retroviral pMXs-IRES-Blasticidin
Method in brief: (§1)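 Mouse BaF3 cells were retrovirally transduced (pMXs-IRES-Blasticidin, VSV-G pseudotyped virus from HEK 293T) with the human EGFR or HER2 variant, selected in 10 μg/ml Blasticidin for one week, then made IL-3 independent. EC50 values come from proliferation of these lines.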

EGFR WT [2] = biological target: T2, EGFR WT (Homo sapiens, UniProt P00533); assay: BaF3 cell proliferation assay, EGFR WT (Table A); conditions: potency code, 3 days, CellTiterGlo, read-out: EGFR WT (Activity for Inhibiting EGFR)
T2 sequence (P00533 25-1210 N540K): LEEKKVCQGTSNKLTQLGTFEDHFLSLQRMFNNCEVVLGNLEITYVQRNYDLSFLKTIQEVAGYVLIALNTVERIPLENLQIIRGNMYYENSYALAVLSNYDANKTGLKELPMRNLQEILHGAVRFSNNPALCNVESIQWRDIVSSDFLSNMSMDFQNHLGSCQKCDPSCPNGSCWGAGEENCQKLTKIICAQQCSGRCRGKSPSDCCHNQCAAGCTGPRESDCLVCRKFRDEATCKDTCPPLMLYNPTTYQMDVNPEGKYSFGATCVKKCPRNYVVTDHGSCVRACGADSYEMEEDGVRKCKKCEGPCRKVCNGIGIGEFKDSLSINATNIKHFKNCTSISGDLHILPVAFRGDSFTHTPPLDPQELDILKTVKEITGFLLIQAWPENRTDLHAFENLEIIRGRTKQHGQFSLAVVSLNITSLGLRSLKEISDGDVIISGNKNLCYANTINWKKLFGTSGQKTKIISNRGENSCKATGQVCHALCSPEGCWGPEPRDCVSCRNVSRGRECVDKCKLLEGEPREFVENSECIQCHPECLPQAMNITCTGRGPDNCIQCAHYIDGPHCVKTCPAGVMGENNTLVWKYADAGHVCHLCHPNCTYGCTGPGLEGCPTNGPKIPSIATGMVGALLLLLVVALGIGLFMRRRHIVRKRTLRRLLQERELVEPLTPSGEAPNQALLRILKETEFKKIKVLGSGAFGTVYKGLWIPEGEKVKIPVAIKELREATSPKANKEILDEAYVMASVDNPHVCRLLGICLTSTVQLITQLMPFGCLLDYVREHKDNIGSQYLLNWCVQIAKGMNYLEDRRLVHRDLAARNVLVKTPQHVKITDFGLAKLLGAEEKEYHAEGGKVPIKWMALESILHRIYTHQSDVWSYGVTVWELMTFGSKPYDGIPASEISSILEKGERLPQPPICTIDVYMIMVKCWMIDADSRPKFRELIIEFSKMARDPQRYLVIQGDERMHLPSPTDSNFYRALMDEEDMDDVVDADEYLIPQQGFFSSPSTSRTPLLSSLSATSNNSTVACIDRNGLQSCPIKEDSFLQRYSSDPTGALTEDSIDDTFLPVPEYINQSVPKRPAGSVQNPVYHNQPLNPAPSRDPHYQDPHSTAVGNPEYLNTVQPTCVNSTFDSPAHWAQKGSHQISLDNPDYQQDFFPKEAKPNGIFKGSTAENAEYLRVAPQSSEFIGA
Method in brief: as §1

HER2 YVMA [3] = biological target: T3, HER2 YVMA (Homo sapiens, UniProt P04626, INS775YVMA); assay: Activity for inhibiting HER2 (Table B), HER2 YVMA; conditions: read-out: HER2 YVMA, potency code (IC50)
T3 construct: expressed in transfected cells; host or cells: BaF3 (murine pro-B)
T3 sequence (P04626 with tags, fused parts or gaps INS775YVMA): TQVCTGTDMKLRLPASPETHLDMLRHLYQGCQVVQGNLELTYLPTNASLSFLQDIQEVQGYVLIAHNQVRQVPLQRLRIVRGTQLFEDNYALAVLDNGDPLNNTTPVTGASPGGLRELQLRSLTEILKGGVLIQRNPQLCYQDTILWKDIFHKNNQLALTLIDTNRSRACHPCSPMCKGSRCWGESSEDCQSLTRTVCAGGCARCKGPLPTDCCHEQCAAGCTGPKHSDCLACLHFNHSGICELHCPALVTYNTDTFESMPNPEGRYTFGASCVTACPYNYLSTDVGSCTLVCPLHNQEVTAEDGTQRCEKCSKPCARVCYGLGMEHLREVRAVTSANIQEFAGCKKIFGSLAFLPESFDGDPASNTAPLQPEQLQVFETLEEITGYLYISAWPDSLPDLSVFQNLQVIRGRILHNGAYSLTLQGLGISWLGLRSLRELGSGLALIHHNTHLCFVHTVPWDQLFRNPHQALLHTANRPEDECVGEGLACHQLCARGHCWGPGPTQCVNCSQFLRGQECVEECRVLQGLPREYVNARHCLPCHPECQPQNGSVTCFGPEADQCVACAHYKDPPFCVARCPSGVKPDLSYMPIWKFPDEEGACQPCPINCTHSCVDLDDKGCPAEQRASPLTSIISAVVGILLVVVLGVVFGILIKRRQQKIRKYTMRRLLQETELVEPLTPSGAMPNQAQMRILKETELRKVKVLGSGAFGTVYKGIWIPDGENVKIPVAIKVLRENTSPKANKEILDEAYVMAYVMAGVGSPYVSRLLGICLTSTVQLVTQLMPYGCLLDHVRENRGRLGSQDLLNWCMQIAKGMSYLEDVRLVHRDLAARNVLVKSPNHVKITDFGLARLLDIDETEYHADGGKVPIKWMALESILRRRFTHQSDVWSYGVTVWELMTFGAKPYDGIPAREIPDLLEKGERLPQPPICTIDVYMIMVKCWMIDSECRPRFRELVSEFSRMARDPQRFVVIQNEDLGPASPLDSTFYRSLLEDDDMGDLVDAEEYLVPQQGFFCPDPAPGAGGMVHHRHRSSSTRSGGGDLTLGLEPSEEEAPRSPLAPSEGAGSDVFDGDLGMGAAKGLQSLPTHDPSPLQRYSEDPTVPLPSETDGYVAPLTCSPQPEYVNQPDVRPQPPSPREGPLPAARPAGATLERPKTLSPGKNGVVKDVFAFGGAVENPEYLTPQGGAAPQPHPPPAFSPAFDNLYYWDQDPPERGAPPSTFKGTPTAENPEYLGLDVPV
Method: (§2) EC50 values were determined with the same application.

HER2 S310F [4] = biological target: T4, HER2 S310F (Homo sapiens, UniProt P04626, S310F); assay: BaF3 cell proliferation assay, HER2 S310F (Table B); conditions: potency code, 3 days, CellTiterGlo, read-out: HER2 S310F (Activity for Inhibiting HER2)
T4 construct: expressed in transfected cells; host or cells: BaF3 (murine pro-B)
T4 sequence (P04626 23-1255 S310F): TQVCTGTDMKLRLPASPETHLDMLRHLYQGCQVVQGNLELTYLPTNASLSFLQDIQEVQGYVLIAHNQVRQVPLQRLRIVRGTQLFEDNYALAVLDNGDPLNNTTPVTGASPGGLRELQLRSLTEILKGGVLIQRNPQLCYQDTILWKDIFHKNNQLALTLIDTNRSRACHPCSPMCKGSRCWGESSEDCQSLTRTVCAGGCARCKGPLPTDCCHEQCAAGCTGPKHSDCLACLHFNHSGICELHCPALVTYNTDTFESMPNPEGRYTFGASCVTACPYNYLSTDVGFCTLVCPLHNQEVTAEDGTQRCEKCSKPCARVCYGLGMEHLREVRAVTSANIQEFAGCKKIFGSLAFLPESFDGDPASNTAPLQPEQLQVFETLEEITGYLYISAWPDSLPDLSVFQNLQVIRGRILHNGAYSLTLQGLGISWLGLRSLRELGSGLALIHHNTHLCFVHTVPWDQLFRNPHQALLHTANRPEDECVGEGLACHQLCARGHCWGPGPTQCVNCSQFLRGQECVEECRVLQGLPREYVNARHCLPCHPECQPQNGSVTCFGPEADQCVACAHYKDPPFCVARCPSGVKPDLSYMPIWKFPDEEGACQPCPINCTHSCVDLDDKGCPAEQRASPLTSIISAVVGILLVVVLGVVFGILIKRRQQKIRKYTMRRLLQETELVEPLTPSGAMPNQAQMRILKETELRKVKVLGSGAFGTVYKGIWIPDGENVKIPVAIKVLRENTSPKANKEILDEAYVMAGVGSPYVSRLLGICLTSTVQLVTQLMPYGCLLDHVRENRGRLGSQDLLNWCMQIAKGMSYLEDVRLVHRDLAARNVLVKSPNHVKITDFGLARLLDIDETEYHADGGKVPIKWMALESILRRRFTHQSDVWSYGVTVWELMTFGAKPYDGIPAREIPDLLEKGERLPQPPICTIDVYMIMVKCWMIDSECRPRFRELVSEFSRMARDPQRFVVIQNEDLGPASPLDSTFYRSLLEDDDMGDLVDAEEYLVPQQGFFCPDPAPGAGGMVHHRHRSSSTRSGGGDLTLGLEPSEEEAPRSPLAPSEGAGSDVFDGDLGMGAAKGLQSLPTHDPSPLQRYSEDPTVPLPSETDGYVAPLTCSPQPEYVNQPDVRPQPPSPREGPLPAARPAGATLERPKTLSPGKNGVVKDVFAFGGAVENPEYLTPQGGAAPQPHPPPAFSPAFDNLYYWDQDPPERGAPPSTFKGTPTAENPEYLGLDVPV

HER2 S310F [5] = biological target: T4, HER2 S310F; assay: Activity for inhibiting HER2 (Table B), HER2 S310F; conditions: read-out: HER2 S310F, potency code (IC50)
Method: as §2

EGFR WT [6] = biological target: T2, EGFR WT; assay: Activity for inhibiting EGFR (Table A), EGFR WT; conditions: read-out: EGFR WT, potency code (IC50)
EGFR V3 [7] = biological target: T1, EGFR V3; assay: Activity for inhibiting EGFR (Table A), EGFR V3 (EGFR-Viii); conditions: read-out: EGFR V3, potency code (IC50)
HER2 YVMA [8] = biological target: T3, HER2 YVMA; assay: BaF3 cell proliferation assay, HER2 YVMA (Table B); conditions: potency code, 3 days, CellTiterGlo, read-out: HER2 YVMA (Activity for Inhibiting HER2)

T1 sequence (P00533 with tags, fused parts or gaps DELINS30-297G): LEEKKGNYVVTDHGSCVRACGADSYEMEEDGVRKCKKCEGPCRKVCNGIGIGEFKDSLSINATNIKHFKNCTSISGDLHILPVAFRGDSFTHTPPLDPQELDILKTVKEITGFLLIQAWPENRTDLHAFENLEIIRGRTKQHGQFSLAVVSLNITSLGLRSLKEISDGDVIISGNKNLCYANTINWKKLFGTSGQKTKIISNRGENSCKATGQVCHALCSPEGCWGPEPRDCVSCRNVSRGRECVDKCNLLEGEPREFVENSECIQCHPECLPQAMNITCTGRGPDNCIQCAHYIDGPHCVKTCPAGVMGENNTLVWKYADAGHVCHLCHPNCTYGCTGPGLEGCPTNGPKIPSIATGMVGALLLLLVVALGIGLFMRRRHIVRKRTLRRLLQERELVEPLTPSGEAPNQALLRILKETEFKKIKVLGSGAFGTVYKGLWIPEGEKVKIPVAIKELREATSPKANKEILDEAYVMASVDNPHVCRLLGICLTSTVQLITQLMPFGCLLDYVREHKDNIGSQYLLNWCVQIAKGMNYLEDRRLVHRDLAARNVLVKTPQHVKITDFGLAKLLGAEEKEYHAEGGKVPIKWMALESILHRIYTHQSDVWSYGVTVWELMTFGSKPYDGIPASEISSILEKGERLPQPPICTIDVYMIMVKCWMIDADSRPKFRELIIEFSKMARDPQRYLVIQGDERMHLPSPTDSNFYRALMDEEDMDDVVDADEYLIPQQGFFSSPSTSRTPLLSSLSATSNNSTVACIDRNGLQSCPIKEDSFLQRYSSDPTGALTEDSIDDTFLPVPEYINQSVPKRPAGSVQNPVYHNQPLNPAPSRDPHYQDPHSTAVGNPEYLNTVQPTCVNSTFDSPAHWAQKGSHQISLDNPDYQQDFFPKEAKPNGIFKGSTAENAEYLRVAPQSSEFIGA

| SMILES | IC50 (EGFR V3 [1]) [nM] | IC50 (EGFR WT [2]) [nM] | IC50 (HER2 YVMA [3]) [nM] | IC50 (HER2 S310F [4]) [nM] | IC50 (HER2 S310F [5]) [nM] | IC50 (EGFR WT [6]) [nM] | IC50 (EGFR V3 [7]) [nM] | IC50 (HER2 YVMA [8]) [nM] |
| --- | --- | --- | --- | --- | --- | --- | --- | --- |
| C=CC(=O)Nc1cc2c(Nc3ccc(OCc4ccccn4)c(Cl)c3)ncnc2cc1N1CC2(CCN2C)C1 [compound 50] | 30 to 50 | > 1000 | > 1000 | 200 to 300 | 200 to 300 | > 1000 | 30 to 50 | > 1000 |
| CC#CC(=O)Nc1cc2c(Nc3cc(Cl)c(OCc4cccc(F)c4)cc3F)ncnc2cc1O[C@@H]1CCN(C)C1 [compound 151, (R)-N-(4-((5-chloro-2-fluoro-4-((3-fluorobenzyl)oxy)phenyl)amino)-7-((1-methylpyrrolidin-3-yl)oxy)quinazolin-6-yl)but-2-ynamide] | 50 to 100 | 100 to 200 | 100 to 200 | 10 to 20 | 10 to 20 | 100 to 200 | 50 to 100 | 100 to 200 |
| CC#CC(=O)Nc1cc2c(Nc3ccc(OCc4ccccn4)c(Cl)c3)ncnc2cc1C#CC(C)(C)N1CCN(C)CC1 [compound 89, N-(4-((3-chloro-4-(pyridin-2-ylmethoxy)phenyl)amino)-7-(3-methyl-3-(4-methylpiperazin-1-yl)but-1-yn-1-yl)quinazolin-6-yl)but-2-ynamide] | 30 to 50 | 50 to 100 | 50 to 100 | 10 to 20 | 10 to 20 | 50 to 100 | 30 to 50 | 50 to 100 |
| C=CC(=O)Nc1cc2c(Nc3ccc(OCc4cccc(C)n4)c(Cl)c3)ncnc2cc1OCCN1CC(OC)C1 [compound 135] | 50 to 100 | 300 to 500 | 300 to 500 | 100 to 200 | 100 to 200 | 300 to 500 | 50 to 100 | 300 to 500 |
| C=CC(=O)Nc1cc2c(Nc3cnc(NCc4ccccn4)c(Cl)c3)ncnc2cc1OCCN1CCOCC1 [compound 97, N-(4-((5-chloro-6-((pyridin-2-ylmethyl)amino)pyridin-3-yl)amino)-7-(2-morpholinoethoxy)quinazolin-6-yl)acrylamide] | 50 to 100 | 500 to 1000 | 500 to 1000 | 200 to 300 | 200 to 300 | 500 to 1000 | 50 to 100 | 500 to 1000 |
| C=CC(=O)Nc1cc2c(Nc3ccc(OCc4cnccn4)c(Cl)c3)ncnc2cc1OCCN1CCN(C)CC1 [compound 180] | 30 to 50 | 500 to 1000 | 100 to 200 | 20 to 30 | 20 to 30 | 500 to 1000 | 30 to 50 | 100 to 200 |
| C=CC(=O)Nc1cc2c(Nc3ccc(OCc4ccccn4)c(Cl)c3)ncnc2cc1C#CC1[C@H]2CNC[C@@H]12 (stereo partly drawn) [compound 105, N-(7-((1R,5S,6s)-3-azabicyclo[3.1.0]hexan-6-ylethynyl)-4-((3-chloro-4-(pyridin-2-ylmethoxy)phenyl)amino)quinazolin-6-yl)acrylamide] | 50 to 100 | 500 to 1000 | 100 to 200 | 30 to 50 | 30 to 50 | 500 to 1000 | 50 to 100 | 100 to 200 |
| C=CC(=O)Nc1cc2c(Nc3ccc(Oc4ccccc4)c(C)c3)ncnc2cc1C#C[C@@H]1[C@H]2CN(C)C[C@@H]12 [compound 117, N-(7-(((1R,5S,6s)-3-methyl-3-azabicyclo[3.1.0]hexan-6-yl)ethynyl)-4-((3-methyl-4-phenoxyphenyl)amino)quinazolin-6-yl)acrylamide] | 100 to 200 | 500 to 1000 | 100 to 200 | 50 to 100 | 50 to 100 | 500 to 1000 | 100 to 200 | 100 to 200 |
| C=CC(=O)Nc1cc2c(Nc3ccc(Oc4ccccc4)cc3)ncnc2cc1C#C[C@@H]1[C@H]2CN(C)C[C@@H]12 [compound 106, N-(7-(((1R,5S,6s)-3-methyl-3-azabicyclo[3.1.0]hexan-6-yl)ethynyl)-4-((4-phenoxyphenyl)amino)quinazolin-6-yl)acrylamide] | 30 to 50 | 100 to 200 | 100 to 200 | 30 to 50 | 30 to 50 | 100 to 200 | 30 to 50 | 100 to 200 |
| CC#CC(=O)Nc1cc2c(Nc3ccc(OCc4ncccn4)c(Cl)c3)ncnc2cc1OCCCN1CCOCC1 [compound 168, N-(4-((3-chloro-4-(pyrimidin-2-ylmethoxy)phenyl)amino)-7-(3-morpholinopropoxy)quinazolin-6-yl)but-2-ynamide] | 30 to 50 | 200 to 300 | 50 to 100 | 20 to 30 | 20 to 30 | 200 to 300 | 30 to 50 | 50 to 100 |
| C=CC(=O)Nc1cc2c(Nc3cc(C)c(OCc4ccccn4)cc3F)ncnc2cc1OCCN1CCOCC1 [compound 100, N-(4-((2-fluoro-5-methyl-4-(pyridin-2-ylmethoxy)phenyl)amino)-7-(2-morpholinoethoxy)quinazolin-6-yl)acrylamide] | 30 to 50 | 300 to 500 | 300 to 500 | 50 to 100 | 50 to 100 | 300 to 500 | 30 to 50 | 300 to 500 |

Second part, the compound after the results:

| IC50 (EGFR V3 [1]) [nM] | IC50 (EGFR WT [2]) [nM] | IC50 (HER2 YVMA [3]) [nM] | IC50 (HER2 S310F [4]) [nM] | IC50 (HER2 S310F [5]) [nM] | IC50 (EGFR WT [6]) [nM] | IC50 (EGFR V3 [7]) [nM] | IC50 (HER2 YVMA [8]) [nM] | SMILES |
| --- | --- | --- | --- | --- | --- | --- | --- | --- |
| 30 to 50 | > 1000 | 50 to 100 | 10 to 20 | 10 to 20 | > 1000 | 30 to 50 | 50 to 100 | C=CC(=O)Nc1cc2c(Nc3ccc(OCc4ccccn4)c(Cl)c3)ncnc2cc1OCCC1COCCN1C (stereo not shown) [compound 120, N-(4-((3-chloro-4-(pyridin-2-ylmethoxy)phenyl)amino)-7-(2-(4-methylmorpholin-3-yl)ethoxy)quinazolin-6-yl)acrylamide] |
| 100 to 200 | 300 to 500 | > 1000 | 300 to 500 | 300 to 500 | 300 to 500 | 100 to 200 | > 1000 | COC/C=C/C(=O)Nc1cc2c(Nc3ccc(OCc4ccccn4)c(Cl)c3)ncnc2cc1OCCN1CCOCC1 [compound 112, (E)-N-(4-((3-chloro-4-(pyridin-2-ylmethoxy)phenyl)amino)-7-(2-morpholinoethoxy)quinazolin-6-yl)-4-methoxybut-2-enamide] |
| 100 to 200 | 500 to 1000 | 100 to 200 | 30 to 50 | 30 to 50 | 500 to 1000 | 100 to 200 | 100 to 200 | C=CC(=O)Nc1cc2c(Nc3ccc(OCc4cccc(C)n4)c(Cl)c3)ncnc2cc1OCCCN1CCOCC1 [compound 129] |
| 100 to 200 | > 1000 | 200 to 300 | 30 to 50 | 30 to 50 | > 1000 | 100 to 200 | 200 to 300 | C=CC(=O)Nc1cc2c(Nc3ccc(OCc4ccccn4)c(Cl)c3)ncnc2cc1C#C[C@@H]1CCCN1C [compound 87, N-(4-((3-chloro-4-(pyridin-2-ylmethoxy)phenyl)amino)-7-((1-methylpyrrolidin-2-yl)ethynyl)quinazolin-6-yl)acrylamide] |
| 100 to 200 | > 1000 | > 1000 | 300 to 500 | 300 to 500 | > 1000 | 100 to 200 | > 1000 | C=CC(=O)Nc1cc2c(Nc3ccc(OCc4ccccn4)c(Cl)c3)ncnc2cc1N1CCC(N(C)C)C1 (stereo not shown) [compound 64] |
| 100 to 200 | 500 to 1000 | > 1000 | 100 to 200 | 100 to 200 | 500 to 1000 | 100 to 200 | > 1000 | C=CC(=O)Nc1cc2c(Nc3ccc(OCc4ccccn4)c(Cl)c3)ncnc2cc1OCCN1CCS(=O)(=O)CC1 [compound 125] |
| 30 to 50 | 300 to 500 | 100 to 200 | 30 to 50 | 30 to 50 | 300 to 500 | 30 to 50 | 100 to 200 | C=CC(=O)Nc1cc2c(Nc3ccc(OCc4ccccn4)c(Cl)c3)ncnc2cc1OCCN1CCC(O)CC1 [compound 111, N-(4-((3-chloro-4-(pyridin-2-ylmethoxy)phenyl)amino)-7-(2-(4-hydroxypiperidin-1-yl)ethoxy)quinazolin-6-yl)acrylamide] |
| 30 to 50 | > 1000 | 30 to 50 | 10 to 20 | 10 to 20 | > 1000 | 30 to 50 | 30 to 50 | C=CC(=O)Nc1cc2c(Nc3ccc(OCc4cnccn4)c(Cl)c3)ncnc2cc1OCCCN1CCOCC1 [compound 169] |
| 20 to 30 | 200 to 300 | 200 to 300 | 30 to 50 | 30 to 50 | 200 to 300 | 20 to 30 | 200 to 300 | C=CC(=O)Nc1cc2c(Nc3ccc(OCc4ccccn4)c(Cl)c3)ncnc2cc1O[C@H]1CCCN(C)CC1 [compound 99, N-(4-((3-chloro-4-(pyridin-2-ylmethoxy)phenyl)amino)-7-((1-methylazepan-4-yl)oxy)quinazolin-6-yl)acrylamide] |
